According to patent US9079970B2, “Methods and compositions for specific modulation of MCL-1” (Dana Farber Cancer Institute, Inc., priority 2008, dated 2015):
Entries after “also recorded” stand apart in the source; their conditions may differ. Where a SMILES comes first, the peptide text is derived from it. Bridges are numbered along the chain shown (N, C = ends). [ ]: non-standard residue; d: D form. S5 = C=CCCC[C@](C)(N)C(=O)O

Key:
[1] = molecular target: T1, Mcl-1 ΔNΔC (Homo sapiens, UniProt Q07820); assay: Fluorescence polarization direct binding of FITC-SAHBs to MCL-1ΔNΔC; conditions: FPA
T1 construct: GST (N, cleaved yes); made in house; host or cells: Escherichia coli BL21 (DE3), pGEX-4T
Experimental: (§1) Binding assays were performed as previously described (Pitter et al., Methods Enzymol 446, 387 (2008). Briefly, FITC-SAHB (50 nM) was added to serial dilutions of FPLC-purified recombinant protein in binding buffer (50 mM Tris, 100 mM NaCl, pH 8.0). For competition assays, serial dilutions of acetylated MCL-1 SAHBs were mixed with FITC-BAK SAHB (25 nM), followed by addition of MCL-1ΔNΔC (100 nM) diluted in binding buffer (50 mM Tris, 100 mM NaCl, pH 8.0). Multiwell plates were incubated in the dark at room temperature until equilibrium was reached and fluorescence polarization (mP units) was measured by microplate reader (SpectraMax, Molecular Devices). For direct binding experiments, dissociation constants (KD) were calculated by nonlinear regression analysis of dose-response curves using Prism software (Graphpad). For competition experiments, Ki values were determined by nonlinear regression analysis of dose-response curves using a one-site competition model.
To measure the binding activity of SAHBs for MCL-1, fluorescence polarization binding assays were performed (FIG. 8). […] Fluorescence polarization was measured on a BMG POLARstar Optima or Spectramax and dissociation constants determined by nonlinear regression analysis using Prism software 4.0 (Graphpad) (FIG. 8). […]

[2] = molecular target: recombinant BCL-XLΔC (Homo sapiens, UniProt Q07817); assay: Fluorescence polarization direct binding of FITC-SAHBs to BCL-XLΔC; conditions: FPA
Experimental: as §1
(§2) Recombinant carboxy-terminal deleted anti-apoptotic proteins were expressed using the pGEX-4T vector, and purified as described for rMCL-1. The purified proteins were incubated with FITC-SAHBs, and binding affinities were analyzed by fluorescence polarization assay as described above. […] Optionally, design and optimization of tailored SAHB compounds for anti-apoptotic targeting also employed computational modeling.

[3] = molecular target: T1, Mcl-1 ΔNΔC; assay: MCL-1 Specific Binders | Mcl-1 ΔNΔC
From the text: Table printed on a drawing sheet, FIGURE 9 A
Head of the field: MCL-1 Specific Binders | Mcl-1 ΔNΔC
(A) illustrates a table of KD values for MCL-1-specific and pan-anti-apoptotic binding SAHBs.
First copying reader's note: KD values with their ± error in the same cell; each column is one anti-apoptotic target protein.
Where the first naming reader finds the target: head: Mcl-1 ΔNΔC

[4] = system: recombinant BFL-1/A1ΔC; assay: Fluorescence polarization direct binding of FITC-SAHBs to BFL-1/A1ΔC; conditions: FPA
Experimental: as §1
(§3) Compounds that bound MCL-1 with high affinity were analyzed for MCL-1 selectivity by measuring SAHB affinities for recombinant BCL-XLΔC, BCL-WΔC and BFL-1/A1ΔC (FIG. 8B). […] The purified proteins were incubated with FITC-SAHBs, and binding affinities were analyzed by fluorescence polarization assay as described above. […]

[5] = system: recombinant BCL-wΔC; assay: Fluorescence polarization direct binding of FITC-SAHBs to BCL-wΔC; conditions: FPA
Experimental: as §1, §3

[6] = system: MCL-1ΔNΔC, BCL-2ΔC, BCL-XLΔC, BCL-wΔC and BFL-1/A1ΔC; assay: FPA selectivity across panel of anti-apoptotic proteins; format: binding; conditions: FPA against anti-apoptotic panel
Experimental: as §1
as §2, with “Compounds that bound MCL-1 with high affinity were analyzed for MCL-1 selectivity by measuring SAHB affinities for recombinant BCL-XLΔC, BCL-WΔC and BFL-1/A1ΔC (FIG. 8B). Recombinant” for “Recombinant”
After the experiments set forth above, further members of the library of stabilized alpha-helices of BCL-2 domains (SAHBs) modeled after the BH3 domains of BCL-2 family proteins were generated in order to identify potent and selective inhibitors of MCL-1. The native alpha-helical structure of BH3 domains was reinforced by incorporating non-natural amino acids containing olefin tethers at the (i, i+4) positions of the non-interacting face, followed by ruthenium catalyzed olefin metathesis to yield a panel of stapled BH3 domains (FIG. 7). Fluorescence polarization assays (FPA) were performed to measure the binding affinity of fluorescently labeled SAHBs for recombinant human MCL-1ΔNΔC (amino acids 172-320), a deletion construct that contains the BH3-binding pocket and affords enhanced expression, purity, and stability. […] To identify MCL-1-selective SAHBs, we first screened for recombinant BCL-XLΔC binding, which eliminated PUMA, BID, BIM, BOK, BAX, and BAK SAHBs and then for recombinant BFL1/A1ΔC binding, which eliminated NOXA SAHB.

[7] = molecular target: T2, MCL-1/BAK interaction in U937 AML cells (Homo sapiens, UniProt Q07820); assay: MCL-1 immunoprecipitation / BAK western in U937 cells; format: cell-based; conditions: MCL-1 co-immunoprecipitation
T2 construct: MCL-1 over-expressing cancer cells, such as OPM2 multiple myeloma and U937 AML cells; endogenous in cells; host or cells: U937 AML cells
Experimental: After cellular lysis in 50 mM Tris (pH 7.4), 150 mM NaCl, 1 mM EDTA, 1% CHAPS and complete protease inhibitor pellet, cellular debris was pelleted at 14,000 g for 10 minutes at 4° C. The supernatant was incubated with pre-equilibrated protein A/G sepharose beads. The pre-cleared supernatant was treated with anti-MCL-1 antibody for 1.5 hours at 4° C. with rotation, followed by exposure to the protein A/G sepharose beads for 1 hour. The beads were pelleted and washed with lysis buffer for 10 minutes at 4° C. The washed beads were pelleted, heated to 90° C. for 10 minutes in SDS loading buffer, analyzed by SDS/PAGE, and immunoblotted for the known MCL-1 interactor, BAK. […] The SAHB-induced dissociation of MCL-1/BAK correlated with sensitization of U937 cells to apoptosis induction by a pro-apoptotic stimulus (see below).

[8] = system: U937 AML cells; assay: Cell viability by MTT assay, U937; format: cell-based; conditions: combined with low-dose BIM SAHB
From the text: A cell-based screen was used to evaluate the pro-apoptotic activity of MCL-1-targeting SAHBs in MCL-1-dependent hematologic cancer cell lines, including U937 (histiocytic lymphoma), Pfeiffer (diffuse large B-cell lymphoma), OCI-AML3 (acute myeloid leukemia), K562 (chronic myelogenous leukemia) and OPM-2 (multiple myeloma) cells.

[9] = system: Jurkat cells; assay: Live confocal microscopy of cellular uptake and localization; format: cell-based; conditions: FITC-SAHB
Experimental: In addition to FACS-based analysis, live confocal microscopy was used to visualize cellular uptake and intracellular localization of MCL-1 targeting SAHBs. For live confocal microscopy, Jurkat cells were incubated with FITC-SAHB and live cell organelle markers (e.g., dextran to label pinosomes, Mitotracker to label mitochondria). At defined time points (e.g., 4, 8, 12, and 24 hours), cells were washed twice with PBS, resuspended in PBS, wet mounted and imaged by confocal microscopy. […] Cell permeability and intracellular targeting can also be optimized through site-directed mutagenesis; for example, converting negatively charged residues to neutral or positively charged residues (e.g. SEQ ID NO: 39) can enhance cellular uptake as was previously reported (Bernal et al JACS, 2007).

Chain of recombinant BCL-XLΔC (Q07817 1-209, stated change not applied): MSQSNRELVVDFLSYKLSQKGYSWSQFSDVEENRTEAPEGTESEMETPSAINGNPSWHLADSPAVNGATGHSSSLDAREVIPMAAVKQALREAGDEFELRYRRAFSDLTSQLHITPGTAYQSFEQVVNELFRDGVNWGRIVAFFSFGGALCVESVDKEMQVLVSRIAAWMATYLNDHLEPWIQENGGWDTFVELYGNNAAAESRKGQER
T1 sequence (Q07820 172-327, stated change not applied): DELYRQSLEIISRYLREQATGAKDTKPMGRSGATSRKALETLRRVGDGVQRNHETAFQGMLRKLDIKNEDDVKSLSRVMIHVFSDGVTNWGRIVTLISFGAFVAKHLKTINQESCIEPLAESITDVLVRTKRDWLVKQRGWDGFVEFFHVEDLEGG
T2 sequence (Q07820 whole entry): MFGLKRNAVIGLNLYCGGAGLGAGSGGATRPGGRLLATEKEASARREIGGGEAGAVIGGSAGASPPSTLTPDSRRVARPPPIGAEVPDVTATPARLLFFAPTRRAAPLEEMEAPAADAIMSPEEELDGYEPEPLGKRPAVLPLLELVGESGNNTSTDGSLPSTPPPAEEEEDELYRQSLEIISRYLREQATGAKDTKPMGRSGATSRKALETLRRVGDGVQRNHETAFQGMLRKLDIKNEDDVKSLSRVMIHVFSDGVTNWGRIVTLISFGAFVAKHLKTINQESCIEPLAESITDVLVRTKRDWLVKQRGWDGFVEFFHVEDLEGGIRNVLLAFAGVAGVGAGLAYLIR

| Molecule | MCL-1ΔNΔC binding activity [1] | BCL-XL binding [2] | Kd [3] [µM] | BFL-1/A1 binding [4] | BCL-w binding [5] | binding selectivity among anti-apoptotic proteins [6] | dissociation of MCL-1/BAK interaction in U937 cells [7] | sensitization of U937 cells to BIM SAHB [8] | cellular uptake and intracellular localization [9] |
| --- | --- | --- | --- | --- | --- | --- | --- | --- | --- |
| CC(C)C[C@H](NC(=O)[C@H](C)NC(=O)[C@@H](N)CCCCN)C(=O)N[C@@H](CCC(=O)O)C(=O)N[C@H](C(=O)N[C@@H](CC(C)C)C(=O)N[C@@H](CCCNC(=N)N)C(=O)N[C@@]1(C)CCCC=CCCC[C@@](C)(C(=O)N[C@@H](Cc2ccccc2)C(=O)N[C@@H](CCC(N)=O)C(=O)N[C@@H](CCCNC(=N)N)C(=O)N[C@@H](CC(N)=O)C(=O)N[C@@H](Cc2c[nH]cn2)C(=O)N[C@@H](CCC(=O)O)C(=O)N[C@H](C(=O)N[C@@H](C)C(=O)N[C@@H](Cc2ccccc2)C(N)=O)[C@@H](C)O)NC(=O)[C@H](CC(=O)O)NC(=O)CNC(=O)[C@H](C(C)C)NC1=O)[C@@H](C)O [MCL-1 SAHBA V220F] | binds to both MCL-1 and BCL-XL | binds to both MCL-1 and BCL-XL | – | – | – | – | – | – | – |
| LEVESXTQLXRFGDKLNFRQKL [NOXA SAHBB] | – | – | 0.109 ± 0.032 | – | – | – | – | – | – |
| CC(C)C[C@H](NC(=O)[C@H](CCCCN)NC(=O)[C@H](CCC(N)=O)NC(=O)[C@H](CCCNC(=N)N)NC(=O)[C@H](Cc1ccccc1)NC(=O)[C@H](CC(N)=O)NC(=O)[C@H](CC(C)C)NC(=O)[C@]1(C)CCCC=CCCC[C@](C)(NC(=O)[C@H](CCCNC(=N)N)NC(=O)[C@H](CC(C)C)NC(=O)[C@H](CCC(N)=O)NC(=O)[C@@H](NC(=O)[C@H](C)NC(=O)[C@H](CO)NC(=O)[C@H](CCC(=O)O)NC(=O)[C@@H](NC(=O)[C@H](CCC(=O)O)NC(=O)[C@@H](N)CC(C)C)C(C)C)[C@@H](C)O)C(=O)N[C@@H](Cc2ccccc2)C(=O)NCC(=O)N[C@@H](CC(=O)O)C(=O)N1)C(N)=O [NOXA SAHB] (H-LEVESATQLR[S5]FGD[S5]LNFRQKL-NH2; staple 11-15; C-terminus assumed) | – | did not engage | – | eliminated; also recorded: did not engage | did not engage | striking selectivity for MCL-1ΔNΔC; also recorded: selective for MCL-1 | disrupts the MCL-1/BAK interaction | dose-responsively sensitizes chemoresistant U937 AML cells to low-dose, pro-apoptotic BIM SAHB | striking fluorescence of pinosomes at early time points and subsequent colocalization with Mitotracker |
